Test results published in patent publication US12472224B2, “Ready-to-use bivalirudin compositions” (MAIA Pharmaceuticals, Inc., priority 2019, dated 2025).

Assays:
[1] = tested on: Whole human blood; experiment: Hemolysis study; assay type: cell-based
Experimental: Briefly, human whole blood was collected from a single donor (K2EDTA anticoagulant). The donor blood was analyzed for hemoglobin content in triplicate using an Advia 120 hematology analyzer. The dynamic mixing of drug infusate in human whole blood was simulated in this in vitro study by incubating the diluted test, reference and placebo items at a blood:formulation ratio of 1:0.75, corresponding to a final bivalirudin concentration of 2.14 mg/mL. Blood was mixed with either bivalirudin for injection as described herein, Angiomax®, a bivalirudin placebo, or 0.9% saline. The mixture as incubated at 37° C. (±5° C.) for 30 minutes. Negative controls containing only blood (whole blood control) or blood mixed with 0.9% saline at a blood:saline ratio of 1:0.75 (0.9% NaCl control) were also prepared. A positive control containing blood mixed 1:1 with 1% saponin was also prepared. All control tubes were incubated at 37° C. (±5° C.) for 30 minutes. […] During the incubation tubes containing the test and reference item mixed with saline were prepared to check if the test or reference item interfered with the absorbance readings. […] The percent hemolysis of each sample was calculated based on the hemoglobin content of the supernatant, expressed as a percentage of hemoglobin content of the donor sample, after correcting for dilution and interference from the sample, if any.

[2] = Toxicokinetics of bivalirudin in satellite animals of the rat study (plasma concentrations); details: both sexes, Sprague-Dawley, in vivo, iv, 24 hours after termination of dosing, 7 out of 23 samples, all others below 50 ng/mL, read-out: plasma bivalirudin concentration at the 24-hour timepoint
Experimental: The infusion rate was 2.5 mL/kg/h for all groups. A separate set of satellite animals (6/sex/group) were administered the same set of materials and used for evaluating the toxicokinetics (TK) of bivalirudin at 5 minutes and 24 hours after termination of dosing (3 animals/sex/group/timepoint). See Table 16b for group allocation. All animals were sacrificed on Day 16, one day following the end of the 14-day infusion.
Mean plasma concentrations of bivalirudin at C5 were similar in males treated with the high-dose (250 mg/kg/day) of MAIA Bivalirudin Injection or Sandoz Bivalirudin, and only slightly lower (approximately 20% lower) in the female treated with MAIA Bivalirudin than in the females treated with Sandoz Bivalirudin. However, it must be noted that data are available from just one female for the MAIA product, due to premature deaths or inability to collect blood.

| Molecule | % Hemolysis [1] | % hemolysis (positive control) [1] | level at 24 h [2] |
| --- | --- | --- | --- |
| saponin | 100.0 ± 0.8% | 100% |  |
| CC[C@H](C)[C@H](NC(=O)[C@H](CCC(=O)O)NC(=O)[C@H](CCC(=O)O)NC(=O)[C@H](Cc1ccccc1)NC(=O)[C@H](CC(=O)O)NC(=O)CNC(=O)[C@H](CC(N)=O)NC(=O)CNC(=O)CNC(=O)CNC(=O)CNC(=O)[C@@H]1CCCN1C(=O)[C@H](CCCNC(=N)N)NC(=O)[C@@H]1CCCN1C(=O)[C@H](N)Cc1ccccc1)C(=O)N1CCC[C@H]1C(=O)N[C@@H](CCC(=O)O)C(=O)N[C@@H](CCC(=O)O)C(=O)N[C@@H](Cc1ccc(O)cc1)C(=O)N[C@@H](CC(C)C)C(=O)O [bivalirudin] |  |  | 50.5 to 159 ng/mL |
